Target: human P2X3 receptor (Homo sapiens (Human), UniProt P56373)
Experiment: Evaluation of human P2X3 receptor inhibitory activity (Fluo-3 calcium fluorescence, FDSS 3000, ATP stimulation);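 also: stimulus was 50 nM ATP with fluorescence followed for 3 min, and the response per well was peak post-ATP fluorescence divided by the reading at measurement start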
Assay type: cell-based
[1] = human P2X3 receptor, Test Example 1
[2] = C6BU-1 cells stably expressing human P2X3 receptor, Fluo-3 fluorescence, FDSS 3000
[3] = C6BU-1 cells stably expressing human P2X3 receptor

Sequence of human P2X3 receptor (P56373 whole entry): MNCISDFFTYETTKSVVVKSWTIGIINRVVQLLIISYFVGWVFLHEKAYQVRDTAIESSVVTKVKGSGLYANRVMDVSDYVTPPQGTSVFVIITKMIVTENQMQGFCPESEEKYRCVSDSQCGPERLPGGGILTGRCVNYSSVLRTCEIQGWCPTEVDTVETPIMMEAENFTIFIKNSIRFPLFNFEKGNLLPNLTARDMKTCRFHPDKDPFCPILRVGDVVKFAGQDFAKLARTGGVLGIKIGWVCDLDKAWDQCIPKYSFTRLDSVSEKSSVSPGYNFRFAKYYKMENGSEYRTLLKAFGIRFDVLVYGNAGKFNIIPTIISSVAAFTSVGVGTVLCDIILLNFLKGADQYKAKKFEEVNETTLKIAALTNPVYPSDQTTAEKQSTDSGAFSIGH

| SMILES | IC50 [1] | IC50 [3] | further results |
| --- | --- | --- | --- |
| COC(=O)C[C@@H](C)n1c(=O)[nH]/c(=N\c2ccc(OC(C)C)c(Cl)c2)n(Cc2ccc(C)cc2)c1=O [Compound I-0875] | 14 nM |  |  |
| Cc1ccc(Cn2c(=O)n(C[C@H](C)C(=O)O)c(=O)[nH]/c2=N\c2ccc(Oc3ccccc3)nc2)cc1 [Compound I-1517] | 240 nM |  |  |
| CCc1nc2ccc(/N=c3\[nH]c(=O)n(CCCNC(C)=O)c(=O)n3Cc3ccc(Cl)cc3)cc2s1 [Compound I-1613] |  |  | IC50 [2]: 6 nM |
| CC(CO)(CO)Cn1c(=O)[nH]/c(=N\c2ccc(OCC3CC3)cc2)n(Cc2ccc(Cl)cc2)c1=O [Compound I-2616] | 12 nM |  |  |
| CCOC(=O)Cn1c(=O)[nH]/c(=N\c2ccc(Oc3ncc(C)s3)cc2)n(Cc2ccc(Cl)cc2)c1=O [Compound I-2619] | 6 nM |  |  |
| COc1cc(/N=c2\[nH]c(=O)n(CC(C)(C)C(=O)O)c(=O)n2Cc2ccc(Cl)cc2)ccc1OC(C)C [Compound I-1265] |  | 22 nM |  |
| CCOC(=O)Cn1c(=O)[nH]/c(=N\c2ccc(Oc3ncns3)cc2)n(Cc2ccc(Cl)cc2)c1=O [Compound I-2628] | 4 nM |  |  |
| Cc1ccc(Cn2c(=O)n(C[C@H](C)C(=O)O)c(=O)[nH]/c2=N\c2ccc(OC(F)F)cc2)cc1 [Compound I-1161] |  |  | IC50 [2]: 148 nM |
| CCCCCc1ccc(/N=c2\[nH]c(=O)n(C[C@H](C)C(=O)OC)c(=O)n2Cc2ccc(C)cc2)cc1 [Compound I-1203] |  | 532 nM |  |
| COC(=O)[C@@H](C)Cn1c(=O)[nH]/c(=N\c2ccc(OCC3CC3)cc2)n(Cc2ccc(C)cc2)c1=O [Compound I-0834] | 18 nM |  |  |
| Cc1cc(/N=c2\[nH]c(=O)n(CC[C@H](N)C(=O)O)c(=O)n2Cc2ccc(Cl)cc2)ccc1OC(C)C [Compound I-0736, (S)-1-(4-chlorobenzyl)-3-(3-amino-3-hydroxycarbonylpropyl)-6-(3-mehyl-4-isopropoxyphenylimino)-1,3,5-triazinane-2,4-dion] |  | 131 nM |  |
| COc1ncccc1Cn1c(=O)[nH]/c(=N\c2ccc(OC(C)C)c(F)c2)n(Cc2ccc(Cl)cc2)c1=O [Compound I-0683] |  | 9 nM |  |
| Cc1cc(/N=c2\[nH]c(=O)n(Cc3cccnc3OCCO)c(=O)n2Cc2ccc(Cl)cc2)ccc1OC(C)C [Compound I-0715] |  | 13 nM |  |
| CCn1c(=O)[nH]/c(=N\c2ccc(Oc3ccnc(C(N)=O)c3)cc2)n(Cc2ccc(F)cc2)c1=O [Compound I-2361] | 15 nM |  |  |
| COC(=O)Cn1c(=O)[nH]/c(=N\c2ccc(OC3CCC3)cc2)n(Cc2ccc(Cl)cc2)c1=O [Compound I-1939] |  | 30 nM |  |
| Cc1ccc(Oc2ccc(/N=c3\[nH]c(=O)n(CCC(=O)O)c(=O)n3Cc3ccc(Cl)cc3)cc2)c(C)n1 [Compound I-1413] |  | 72 nM |  |
| Cc1ccc(Cn2c(=O)n(C[C@H](C)C(=O)O)c(=O)[nH]/c2=N\c2ccc(OC(F)F)c(Cl)c2)cc1 [Compound I-1032] |  |  | IC50 [2]: 33 nM |
| Cc1ccc(Cn2c(=O)n(C[C@H](C)C(=O)O)c(=O)[nH]/c2=N\c2ccc(OC3CC3)c(Cl)c2)cc1 [Compound I-1607] |  |  | IC50 [2]: 35 nM |
| COC(=O)[C@@H](C)Cn1c(=O)[nH]/c(=N\c2cnc(OC3CCC3)c(Cl)c2)n(Cc2ccc(Cl)cc2)c1=O [Compound I-1399] |  | 50 nM |  |
| CCOC(=O)CCn1c(=O)[nH]/c(=N\c2ccc(OC(C)C)c(Cl)c2)n(CC2CCC3(CC2)CC3)c1=O [Compound I-1449] |  | 4 nM |  |
| CCOC(=O)[C@@H](C)Cn1c(=O)[nH]/c(=N\c2ccc3oc(CO)cc3c2)n(Cc2ccc(Cl)cc2)c1=O [Compound I-1971] |  | 61 nM |  |
| Cc1cc(Oc2ccc(/N=c3\[nH]c(=O)n(CC(CO)CO)c(=O)n3Cc3ccc(Cl)cc3)cc2)no1 [Compound I-2353] | 8 nM |  |  |
| Cn1c(=O)[nH]/c(=N\c2ccc(Oc3nccc(C(=O)O)n3)cc2)n(Cc2ccc(Cl)cc2)c1=O [Compound I-2405] | 62 nM |  |  |
| Cc1ccc(Cn2c(=O)n(CCC(=O)O)c(=O)[nH]/c2=N\c2ccc(OC3CCC3)c(Cl)c2)cc1 [Compound I-1332] |  | 54 nM |  |
| Cc1ccc(Cn2c(=O)n(C[C@H](C)C(=O)O)c(=O)[nH]/c2=N\c2ccc(OC3CCCCC3)nc2)cc1 [Compound I-1188] |  | 131 nM |  |
